Columns and labels:
[1] = target: T1, GAL4-hPPARα (Homo sapiens, UniProt Q07869); test: GAL4-hPPARα-UAS-luciferase reporter assay in transiently transfected HEK293 cells; type: cell-based; details: for EC50 / PPARα agonist profile compared to the full agonist GW7647: dose-response, HEK293 cells; for EC50: read-out: EC50 for PPARα; for PPARα reporter response relative to vehicle: dosed at 50 μM
T1 sequence (Q07869 200-468 limits assumed): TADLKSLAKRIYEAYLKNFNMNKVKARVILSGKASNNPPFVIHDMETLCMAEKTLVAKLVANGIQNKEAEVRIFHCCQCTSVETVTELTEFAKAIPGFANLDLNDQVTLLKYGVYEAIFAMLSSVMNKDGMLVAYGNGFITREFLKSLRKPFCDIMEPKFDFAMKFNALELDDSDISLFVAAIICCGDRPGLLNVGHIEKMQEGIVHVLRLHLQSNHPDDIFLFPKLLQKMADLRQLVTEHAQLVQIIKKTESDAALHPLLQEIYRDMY
Description: (§1) HEK293 cells were maintained in Dulbecco's modified Eagle's medium supplemented with 10% fetal bovine serum. Cell transfection was performed in media containing 10% charcoal-stripped fetal bovine serum using calcium phosphate in 96-well plates. The total amount of plasmid DNA (150 ng/well) included 50 ng UAS-Iuc reporter, 20 ng β-galactosidase, 15 ng nuclear receptor (GAL4-hPPARα and GAL4-hPPARγ) and pGEM filler plasmid. Ligands were added at 6 to 8 hours post transfection. Cells harvested 14 to 16 hours later were assayed for luciferase and β-galactosidase activity.

[2] = target: T2, GAL4-hPPARγ (Homo sapiens, UniProt P37231); test: GAL4-hPPARγ-UAS-luciferase reporter assay in transiently transfected HEK293 cells; type: cell-based; details: for PPARγ agonist profile compared to rosiglitazone control / EC50: dose-response, HEK293 cells; for EC50: read-out: EC50 for PPARγ; for PPARγ reporter response relative to vehicle: dosed at 50 μM
T2 sequence (P37231 238-505 limits assumed): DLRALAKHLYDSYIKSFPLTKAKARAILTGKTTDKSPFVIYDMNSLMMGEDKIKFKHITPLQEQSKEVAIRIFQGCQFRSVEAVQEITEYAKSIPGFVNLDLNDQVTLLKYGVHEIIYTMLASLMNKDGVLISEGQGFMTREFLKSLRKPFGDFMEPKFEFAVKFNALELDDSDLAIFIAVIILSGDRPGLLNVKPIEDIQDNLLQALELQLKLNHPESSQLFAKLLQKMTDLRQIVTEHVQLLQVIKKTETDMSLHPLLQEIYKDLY
Description: as §1

[3] = system: PPARγ target genes in 3T3-L1 pre-adipocytes; test: 3T3-L1 differentiation assay, expression of PPARγ target genes (QPCR); type: cell-based; details: 25 μM, day 11
Description: (§2) 3T3-L1 cells were maintained in Dulbecco's modified Eagle's medium supplemented with 10% fetal calf serum. Adipocyte differentiation was induced in two-days postconfluent cells by treating the cells with 100 μg/ml isobutylmethylxanthine, 1 μM dexamethasone, and 5 μg/ml insulin with 10% FBS in DMEM (Day 0). Rosiglitazone and LDT ligands were added at the start of differentiation. Two days later, cells were switched to the medium containing 5 μg/ml insulin with 10% FBS. After an additional 72 hrs, cells were switched to maintenance media containing 10% FBS in DMEM. Thereafter, the media was changed every 2 days. Cells were harvested on day 11 for RNA expression and Oil Red O was used to estimate lipid accumulation.
(§3) Total RNA was extracted from cells using RNA STAT-60 (Tel-Test Inc.), followed by DNase I treatment (RNase-free; Roche), and reverse transcribed into cDNA with random hexamers using the High Capacity Reverse Transcription System (ABI; Applied Biosystems). Real-time quantitative PCR (QPCR) analysis was performed on an ABI 7900 in 384-well plates using 2×SYBR Green PCR Master Mix (ABI). Relative mRNA levels were calculated using the comparative Ct method normalized to cyclophilin mRNA.

[4] = system: 3T3-L1 cells; test: Oil Red O staining of 3T3-L1 adipocytes after 11 days of differentiation; type: cell-based; details: 25 μM
Description: as §2
Following 11 days of differentiation, cells were washed with PBS twice and fixed in 10% neutral buffered formalin (Sigma) for 1 h at room temperature, followed by two ddH2O and two washes with 60% isopropanol. Cells were then stained with 0.6% (w/v) Oil Red O solution (60% isopropanol, 40% water) for 10 min at room temperature, followed by five washes with ddH2O to remove unbound dye and images were taken with Leica M205 FA microscope.

[5] = system: PPARα target genes in primary mouse hepatocytes; test: Primary hepatocyte assay, expression of PPARα target genes (QPCR); type: cell-based; details: 50 μM, 24 hrs
Description: Mouse primary hepatocytes were isolated by collagenase perfusion as previously described (Patel et al. 2011). Cells were plated onto type I collagen-coated plates at 0.5×10^6 cells per well for 2 hours in attachment media (William's E Media, 10% charcoal stripped FBS, 1× penicillin/streptomycin, and 10 nM insulin), and then switched to overnight media (M199 Media, 5% charcoal stripped FBS, 1× penicillin/streptomycin, and 1 nM insulin). Ligand treatments were carried out on the following day in M199 media without FBS. Cells were harvested 24 hrs later for RNA extraction.
as §3

[6] = women on drug; cited from earlier work

Compound | EC50 [1] [µM] | PPARγ agonist profile compared to rosiglitazone control [2] | EC50 [2] [µM] | GLUT4 expression [3] | adipocyte differentiation by Oil red O staining [4] | PPARα agonist profile compared to the full agonist GW7647 [1] | further results
CCCCCCCCCCCCCCCc1cccc(O)c1C(=O)O [LDT11] | 9 | full agonist profile | 12 | augmented | less adipogenic compared to Rosi | – | adiponectin expression [3]: significantly increased
CCCCCCCCCCCCCCCc1cccc(OC(C)=O)c1C(=O)O [LDT13] | 7 | partial PPARγ agonists | 12 | augmented | – | – | –
CCCCCCCCCCCCCCCc1cccc(OCC(=O)OCC)c1 [LDT15] | 3.5 | partial PPARγ agonists | 42 | augmented | less adipogenic compared to Rosi | – | CD36 expression (hepatocytes) [5]: significantly increased; FABP1 expression [5]: significantly increased; Fgf21 expression [5]: upregulation; PDK4 expression [5]: upregulated; UCP2 expression [3]: upregulated; adiponectin expression [3]: induced to a similar degree as Rosi
CCCCCCCCCCCCCCCc1cccc(OCC(=O)O)c1 [LDT16] | 0.9 | full agonist profile | 3.6 | – | – | – | –
CCCCCCCCCCCCCCCc1cccc(OC)c1C(=O)O [LDT30] | 32 | – | – | – | – | – | UCP2 expression [3]: upregulated
CCOC(=O)COc1cccc(CCCCCCCCO)c1 [LDT296, Ethyl 2-(3-(8-hydroxyoctyl)phenoxy)acetate] | – | less potent, full agonist profile | – | – | – | less potent partial PPARα agonists | –
CCOC(=O)COc1cccc(CCCCCCCC(=O)O)c1 [LDT298, 8-(3-(2-Ethoxy-2-oxoethoxy)phenyl)octanoic acid] | 1.3 | – | – | – | – | less potent partial PPARα agonists | increase in activity as compared to Veh in the PPARα activation assay ([1]; FIG. 5A, dose not given): comparable luciferase activation; increase in reporter activity in the PPARγ activation assay ([2]; FIG. 5B, dose not given): comparable luciferase activation
CCCCCCCCCCCCCCCc1cccc(OC(C)(C)C(=O)OCC)c1 [LDT408] | – | partial PPARγ agonists | – | augmented | less adipogenic compared to Rosi | – | CD36 expression (hepatocytes) [5]: significantly increased; FABP1 expression [5]: significantly increased; PDK4 expression [5]: upregulated; UCP2 expression [3]: upregulated; adiponectin expression [3]: significantly increased
CCCCCCCCCCCCCCCc1cccc(OC(C)(C)C(=O)O)c1 [LDT409] | 0.2 | – | – | augmented | comparable to Rosi | – | UCP2 expression [3]: upregulated; adiponectin expression [3]: induced to a similar degree as Rosi
CC(C)(Oc1cccc(CCCCCCCCO)c1)C(=O)O [LDT477, 2-(3-(8-hydroxyoctyl)phenoxy)-2-methylpropanoic acid] | 20 | full agonist profile | 14 | upregulated | able to induce adipocyte differentiation | less potent partial PPARα agonists | PPARα reporter response relative to vehicle [1]: most active; PPARγ reporter response relative to vehicle [2]: most active
CCOC(=O)C(C)(C)Oc1cccc(CCCCCCCC(=O)O)c1 [LDT478, 8-(3-((1-ethoxy-2-methyl-1-oxopropan-2-yl)oxy)phenil)octanoic acid] | 37 | full agonist profile | 14 | – | – | less potent partial PPARα agonists | –
CCOC(=O)CCCCCCCc1cccc(OCC(=O)OCC)c1 [LDT480, Ethyl 8-(3-(2-ethoxy-2-oxoethoxy)phenyl)octanoate] | 3.9 | full agonist profile | 21 | – | – | less potent partial PPARα agonists | PPARα reporter response relative to vehicle [1]: most active; PPARγ reporter response relative to vehicle [2]: most active
CCOC(=O)CCCCCCCc1cccc(OC(C)(C)C(=O)OCC)c1 [LDT481, Ethyl 8-(3-((1-ethoxy-2-methyl-1-oxopropan-2-yl)oxy)phenyl)octanoate] | – | – | – | upregulated | able to induce adipocyte differentiation | – | melting point: 39 to 42 °C
CCc1ccc(CCOc2ccc(CC3SC(=O)NC3=O)cc2)nc1 (centres unmarked) [pioglitazone] | – | – | – | – | – | – | rate of distal bone fractures [6]: two-fold increased rate
CN(CCOc1ccc(CC2SC(=O)NC2=O)cc1)c1ccccn1 (centres unmarked) [rosiglitazone] | – | – | – | – | – | – | rate of distal bone fractures [6]: two-fold increased rate
